Values of other authors in patent US8003637B2, “Stabilized atypical antipsychotic formulation” (Handa Pharmaceuticals, LLC, priority 2008, dated 2011).
Read-outs that look alike come from different tables or passages of the source.

Conditions: Merck Index

| Structure (SMILES) | amount soluble in 100 grams of water (25° C.) | volume of water in which 1 gram can dissolve (boiling water) | volume of water in which 1 gram can dissolve (cold water) |
| --- | --- | --- | --- |
| O=C(O)/C=C/C(=O)O [fumaric acid, (E)-butenedioic acid] | 0.63 grams | – | – |
| O=C(O)CCC(=O)O [succinic acid, 1,4-butanedioic acid] | – | 1 mL | 13 mL |
